{
  "source": "patent US20150338423A1",
  "about": "“METHODS FOR DETERMINING RELATIVE BINDING ENERGY OF MONOMERS AND METHODS OF USING THE SAME” (SABIC Global Technologies B.V., priority 2014, published 2015)",
  "target": "T1, (Homo sapiens, UniProt P03372)",
  "T1 sequence (P03372 1-595)": "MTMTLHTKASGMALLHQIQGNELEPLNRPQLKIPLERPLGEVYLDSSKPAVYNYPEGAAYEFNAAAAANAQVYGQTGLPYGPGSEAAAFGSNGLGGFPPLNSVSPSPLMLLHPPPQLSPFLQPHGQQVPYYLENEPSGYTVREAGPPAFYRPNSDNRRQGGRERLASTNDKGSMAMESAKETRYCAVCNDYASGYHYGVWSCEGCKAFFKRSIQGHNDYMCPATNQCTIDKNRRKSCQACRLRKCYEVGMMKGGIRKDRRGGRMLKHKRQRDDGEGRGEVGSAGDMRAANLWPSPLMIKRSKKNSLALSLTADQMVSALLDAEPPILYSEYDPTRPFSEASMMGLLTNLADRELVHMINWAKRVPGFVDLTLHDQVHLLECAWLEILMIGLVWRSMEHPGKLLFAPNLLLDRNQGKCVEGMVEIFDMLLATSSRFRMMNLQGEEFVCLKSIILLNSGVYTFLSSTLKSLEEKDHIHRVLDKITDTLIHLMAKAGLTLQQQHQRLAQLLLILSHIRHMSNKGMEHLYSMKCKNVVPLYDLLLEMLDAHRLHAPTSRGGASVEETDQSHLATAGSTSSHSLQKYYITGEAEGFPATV",
  "assay": "in vitro competitive binding assay (radio-ligand displacement), estradiol binding activity",
  "key": {"[1]": {"settings": "Table 1, unsubstituted reference monomers, displacement of radio-ligand from ERR-α, read-out: IC50"}},
  "note": "Like-named read-outs stand apart in the source and are kept apart here.",
  "method": "The (IC50) of a particular substance can be determined using conventional competition binding assays. In this type of assay, a single concentration of radioligand (such as an agonist) is used in every assay tube. The ligand is used at a low concentration, usually at or below its Kd value. The level of specific binding of the radioligand is then determined in the presence of a range of concentrations of other competing non-radioactive compounds (usually antagonists), in order to measure the potency with which they compete for the binding of the radioligand. Competition curves can also be computer-fitted to a logistic function as described under direct fit.\nIC50 binding concentrations for the alpha in vitro estradiol receptors were tested. Four separate sets of tests were run using a standard competitive binding assay. Samples were dissolved in either ethanol or DMSO. The various compounds were then tested at up to seven different concentrations for each test compound. Each of those tests was run in triplicate. Tests were conducted by displacement of a radio-ligand. For each set of tests a 17P-estradiol control sample was run to ensure proper binding of the natural hormone under the test conditions. Specifically, the IC50 values described herein were determined from in-vitro experiments of the compound binding to ERR-α.",
  "data": [
    {"smiles": "CC(C)(c1ccc(O)cc1)c1ccc(C(C)(C)c2ccc(O)cc2)cc1", "note": "[Reference ID 7, 4,4′-(1,4-phenylenebis(propane-2,2-diyl))diphenol]", "values": [
      {"measurement": "IC50", "value": 3.92, "unit": "µM"}
    ]},
    {"smiles": "COC(=O)CCC(C)(c1ccc(O)cc1)c1ccc(O)cc1", "note": "[Reference ID 10, Methyl 4,4-bis(4-hydroxyphenyl)pentanoate]", "values": [
      {"measurement": "IC50", "setting": "[1]", "value": 18.7, "unit": "µM"}
    ]},
    {"smiles": "COc1cc(C(C)(C)c2ccc(O)c(OC)c2)ccc1O", "note": "[Example 1A, 4,4′-(propane-2,2-diyl)bis(2-methoxyphenol)]", "values": [
      {"measurement": "IC50", "setting": "Table 2, substituted monomers, displacement of radio-ligand from ERR-α, read-out: IC50", "value": "> 250", "unit": "µM"},
      {"measurement": "estradiol binding activity", "setting": "with the LBD cavity of ERR-α, in words", "value": "reduced or no detectable estradiol binding activity"}
    ]},
    {"smiles": "CCC(CC)(c1ccc(O)cc1)c1ccc(O)cc1", "note": "[Reference ID 9, 4,4′-(pentane-3,3-diyl)diphenol]", "values": [
      {"measurement": "IC50", "setting": "[1]", "value": 0.0056, "unit": "µM"}
    ]},
    {"smiles": "Cc1cc(C2(c3ccc(O)c(C)c3)CCCCC2)ccc1O", "note": "[Reference ID 2, 4,4′-(cyclohexane-1,1-diyl)bis(2-methylphenol)]", "values": [
      {"measurement": "IC50", "setting": "[1]", "value": 1.27, "unit": "µM"}
    ]}
  ]
}
